Measured values reported in ChEMBL document CHEMBL4190255, “Novel celastrol derivatives with improved selectivity and enhanced antitumour activity: Design, synthesis and biological evaluation” (Eur J Med Chem, 2017).
The source made the active and inactive calls. The rule behind the calls is not given here.

What was measured:
[1] = tested on: MIA PaCa-2; test: Antiproliferative activity against human MIAPaCa2 cells after 72 hrs by MTT assay; format: functional, cell-based; details: MIA PaCa-2, 72 h
[2] = tested on: A549; test: Antiproliferative activity against human A549 cells after 72 hrs by MTT assay; format: functional, cell-based; details: A549, 72 h
[3] = tested on: SK-OV-3; test: Induction of apoptosis in human SKOV3 cells assessed as early apoptotic cells at IC50 concentration after 48 hrs by Annexin V-FITC/propidium iodide double staining based flow cytometry (reference value: 4.5%); format: functional
[4] = tested on: SK-OV-3; test: Induction of apoptosis in human SKOV3 assessed as effect on caspase-9 levels at IC50 concentration after 72 hrs by Western blot analysis; format: functional, cell-based
[5] = tested on: SK-OV-3; test: Potentiation of cisplatin-induced cytotoxicity in human SKOV3 cells assessed as combination index by measuring reduction in cell viability at 2.4 uM after 72 hrs by MTT assay; format: functional
[6] = tested on: SK-OV-3; test: Induction of apoptosis in human SKOV3 cells assessed as reduction in cell density at IC50 concentration after 48 hrs by Hoechst 33342 staining-based fluorescence microscopy; format: functional
[7] = tested on: SK-OV-3; test: Potentiation of cisplatin-induced cytotoxicity in human SKOV3 cells assessed as combination index by measuring reduction in cell viability at 4.8 uM after 72 hrs by MTT assay; format: functional
[8] = tested on: SK-OV-3; test: Cell cycle arrest in human SKOV3 cells assessed as accumulation at G0/G1 phase at IC50 concentration after 24 to 72 hrs by propidium iodide-based flow cytometry; format: functional
[9] = tested on: SK-OV-3; test: Induction of apoptosis in human SKOV3 cells at IC50 concentration by Annexin V-FITC/propidium iodide double staining based flow cytometry; format: functional, cell-based; details: TDE = time-dependent effect
[10] = Selectivity index, ratio of IC50 for human BJ cells to IC50 for human MIAPaCa2 cells; format: toxicity; details: BJ cells versus MIAPaCa2 cells, read-out: Ratio IC50
[11] = target: T1, Heat shock protein HSP90 (Homo sapiens) (UniProt P07900+P08238); test: Inhibition of HSP90 in human SKOV3 cells assessed as decrease in phosphorylated mTOR levels at IC50 concentration after 72 hrs by Western blot analysis; format: cell-based
[12] = Selectivity index, ratio of IC50 for human BJ cells to IC50 for human A549 cells; format: toxicity; details: BJ cells versus A549 cells, read-out: Ratio IC50
[13] = tested on: SK-BR-3; test: Antiproliferative activity against human SKBR3 cells after 72 hrs by MTT assay; format: functional, cell-based; details: SK-BR-3, 72 h
[14] = tested on: A549; test: Effect on wild-type p53 expression in human A549 cells at IC50 concentration after 72 hrs by Western blot analysis; format: ADME, cell-based; details: a549, 72 h
[15] = tested on: SK-OV-3; test: Antiproliferative activity against human SKOV3 cells after 72 hrs by MTT assay; format: functional, cell-based; details: SK-OV-3, 72 h
[16] = tested on: SK-OV-3; test: Potentiation of cisplatin-induced cytotoxicity in human SKOV3 cells assessed as combination index by measuring reduction in cell viability at 1.2 uM after 72 hrs by MTT assay; format: functional
[17] = tested on: SK-OV-3; test: Induction of apoptosis in human SKOV3 cells assessed as chromatin condensation at IC50 concentration after 48 hrs by Hoechst 33342 staining-based fluorescence microscopy; format: functional, cell-based
[18] = Selectivity index, ratio of IC50 for human BJ cells to IC50 for human SKOV3 cells; format: toxicity; details: BJ cells versus SKOV3 cells, read-out: Ratio IC50
[19] = tested on: SK-OV-3; test: Induction of apoptosis in human SKOV3 assessed as effect on t-bid levels at IC50 concentration after 72 hrs by Western blot analysis; format: functional, cell-based
[20] = tested on: SK-OV-3; test: Cell cycle arrest in human SKOV3 cells assessed as accumulation at S phase at IC50 concentration after 24 to 72 hrs by propidium iodide-based flow cytometry; format: functional
[21] = tested on: SK-OV-3; test: Induction of apoptosis in human SKOV3 cells at IC50 concentration after 24 hrs by Annexin V-FITC/propidium iodide double staining based flow cytometry; format: functional, cell-based
[22] = tested on: SK-OV-3; test: Potentiation of cisplatin-induced cytotoxicity in human SKOV3 cells assessed as combination index by measuring reduction in cell viability at 0.3 uM after 72 hrs by MTT assay; format: functional
[23] = tested on: SK-OV-3; test: Induction of apoptosis in human SKOV3 assessed as decrease in procaspase-8 levels at IC50 concentration after 72 hrs by Western blot analysis; format: functional, cell-based
[24] = tested on: SK-OV-3; test: Induction of apoptosis in human SKOV3 cells assessed as reduction in mutant p53 levels at IC50 concentration after 72 hrs by Western blot analysis; format: functional, cell-based
[25] = tested on: SK-OV-3; test: Induction of apoptosis in human SKOV3 assessed as increase in cleaved PARP levels at IC50 concentration after 72 hrs by Western blot analysis; format: functional, cell-based
[26] = tested on: SK-OV-3; test: Induction of apoptosis in human SKOV3 assessed as decrease in procaspase-3 levels at IC50 concentration after 72 hrs by Western blot analysis; format: functional, cell-based
[27] = tested on: SK-OV-3; test: Induction of apoptosis in human SKOV3 assessed as effect on bid levels at IC50 concentration after 72 hrs by Western blot analysis; format: functional, cell-based
[28] = tested on: SK-OV-3; test: Induction of apoptosis in human SKOV3 assessed as effect on bax levels at IC50 concentration after 72 hrs by Western blot analysis; format: functional, cell-based
[29] = target: T1, Heat shock protein HSP90 (Homo sapiens); test: Inhibition of HSP90 in human SKOV3 cells assessed as decrease in phosphorylated Akt levels at IC50 concentration after 72 hrs by Western blot analysis; format: cell-based
[30] = tested on: SK-OV-3; test: Potentiation of cisplatin-induced cytotoxicity in human SKOV3 cells assessed as combination index by measuring reduction in cell viability at 0.15 uM after 72 hrs by MTT assay; format: functional
[31] = tested on: SK-OV-3; test: Potentiation of cisplatin-induced cytotoxicity in human SKOV3 cells assessed as combination index by measuring reduction in cell viability at 0.6 uM after 72 hrs by MTT assay; format: functional
[32] = tested on: SK-OV-3; test: Induction of apoptosis in human SKOV3 cells assessed as formation of apoptotic bodies at IC50 concentration after 48 hrs by Hoechst 33342 staining-based fluorescence microscopy; format: functional, cell-based
[33] = tested on: SK-OV-3; test: Effect on total mTOR levels in human SKOV3 cells at IC50 concentration after 72 hrs by Western blot analysis; format: ADME, cell-based; details: sk-ov-3, 72 h
[34] = tested on: SK-OV-3; test: Effect on total Akt levels in human SKOV3 cells at IC50 concentration after 72 hrs by Western blot analysis; format: ADME, cell-based; details: sk-ov-3, 72 h
[35] = tested on: SK-OV-3; test: Induction of apoptosis in human SKOV3 assessed as increase in cleaved caspase-8 levels at IC50 concentration after 72 hrs by Western blot analysis; format: functional, cell-based
[36] = tested on: SK-OV-3; test: Induction of apoptosis in human SKOV3 cells assessed as cell shrinkage at IC50 concentration after 48 hrs by Hoechst 33342 staining-based fluorescence microscopy; format: functional
[37] = tested on: SK-OV-3; test: Cell cycle arrest in human SKOV3 cells assessed as accumulation at G2/M phase at IC50 concentration after 24 to 72 hrs by propidium iodide-based flow cytometry; format: functional
[38] = tested on: BJ; test: Cytotoxicity against human BJ cells assessed as reduction in cell viability after 72 hrs by MTT assay; format: cell-based
[39] = tested on: SK-OV-3; test: Induction of apoptosis in human SKOV3 cells assessed as early apoptotic cells at IC50 concentration after 72 hrs by Annexin V-FITC/propidium iodide double staining based flow cytometry (reference value: 4.7%); format: functional
[40] = tested on: MDA-MB-231; test: Antiproliferative activity against human MDA-MB-231 cells after 72 hrs by MTT assay; format: functional, cell-based; details: MDA-MB-231, 72 h
[41] = tested on: SK-OV-3; test: Induction of apoptosis in human SKOV3 assessed as effect on bcl2 levels at IC50 concentration after 72 hrs by Western blot analysis; format: functional, cell-based
[42] = target: T1, Heat shock protein HSP90 (Homo sapiens); test: Inhibition of HSP90 protein levels in human SKOV3 cells at IC50 concentration after 72 hrs by Western blot analysis; format: cell-based

Compound: CCCNC(=O)N[C@]1(C)CC[C@]2(C)CC[C@]3(C)C4=CC=C5C(=CC(=O)C(O)=C5C)[C@]4(C)CC[C@@]3(C)[C@@H]2C1
- IC50 [1]: 0.66 µM
- IC50 [2]: 1.26 µM

Compound: Cc1c(O)c(O)cc2c1C(=O)C=C1[C@@]2(C)CC[C@@]2(C)[C@@H]3C[C@](C)(C(=O)O)CC[C@]3(C)CC[C@]12C
- IC50 [1]: > 5 µM
- IC50 [2]: > 15 µM

Compound: CC1=C(O)C(=O)C=C2C1=CC=C1[C@@]2(C)CC[C@@]2(C)[C@@H]3C[C@](C)(NC(=O)NCc4ccc(C)cc4)CC[C@]3(C)CC[C@]12C
- IC50 [1]: 0.45 µM
- IC50 [2]: 2.45 µM

Compound: CC1=C(O)C(=O)C=C2C1=CC=C1[C@@]2(C)CC[C@@]2(C)[C@@H]3C[C@](C)(NC(=O)NCCc4ccccc4)CC[C@]3(C)CC[C@]12C
- IC50 [1]: 0.41 µM
- IC50 [2]: 1.66 µM

Compound: CC1=C(O)C(=O)C=C2C1=CC=C1[C@@]2(C)CC[C@@]2(C)[C@@H]3C[C@](C)(NC(=O)Nc4ccccc4N)CC[C@]3(C)CC[C@]12C
- IC50 [1]: 0.56 µM
- IC50 [2]: 2.99 µM

Compound: CC1=C(O)C(=O)C=C2C1=CC=C1[C@@]2(C)CC[C@@]2(C)[C@@H]3C[C@](C)(NC(=O)NCCc4cccc(Cl)c4)CC[C@]3(C)CC[C@]12C
- Activity [3]: 15%
- Activity [4]: inactive
- CI [5]: 0.575
- Activity [6]: Active
- CI [7]: 0.7102
- Activity [8]: inactive
- Activity [9]: Tde
- selectivity ratio [10]: 9.31
- inhibition [11]: Active
- selectivity ratio [12]: 2.59
- IC50 [13]: 0.78 µM
- Activity [14]: Non-Toxic
- IC50 [15]: 0.56 µM
- CI [16]: 0.6855
- Activity [17]: Active
- selectivity ratio [18]: 5.81
- Activity [19]: inactive
- Activity [20]: inactive
- Activity [21]: inactive
- CI [22]: 1.374
- Activity [23]: Active
- Activity [24]: Active
- Activity [25]: Active
- Activity [26]: Active
- Activity [27]: inactive
- Activity [28]: inactive
- inhibition [29]: Active
- CI [30]: 1.047
- CI [31]: 1.44
- Activity [32]: Active
- Activity [33]: Non-Toxic
- Activity [34]: Non-Toxic
- Activity [35]: Active
- Activity [36]: Active
- IC50 [1]: 0.35 µM
- Activity [37]: inactive
- IC50 [38]: 3.29 µM
- IC50 [2]: 1.27 µM
- Activity [39]: 31.8%
- IC50 [40]: 1.15 µM
- Activity [41]: inactive
- inhibition [42]: Active

Compound: CNC(=O)N[C@]1(C)CC[C@]2(C)CC[C@]3(C)C4=CC(=O)c5c(cc(OC)c(OC)c5C)[C@]4(C)CC[C@@]3(C)[C@@H]2C1
- IC50 [1]: > 5 µM
- IC50 [2]: > 15 µM

Compound: CC1=C(O)C(=O)C=C2C1=CC=C1[C@@]2(C)CC[C@@]2(C)[C@@H]3C[C@](C)(NC(=O)NCc4ccc(F)cc4)CC[C@]3(C)CC[C@]12C
- IC50 [1]: 0.56 µM
- IC50 [2]: 4.34 µM

Compound: CNC(=O)N[C@]1(C)CC[C@]2(C)CC[C@]3(C)C4=CC=C5C(=CC(=O)C(O)=C5C)[C@]4(C)CC[C@@]3(C)[C@@H]2C1
- selectivity ratio [10]: 4.72
- selectivity ratio [12]: 1.36
- IC50 [1]: 0.41 µM
- IC50 [38]: 1.96 µM
- IC50 [2]: 1.45 µM

Compound: CCCCNC(=O)N[C@]1(C)CC[C@]2(C)CC[C@]3(C)C4=CC=C5C(=CC(=O)C(O)=C5C)[C@]4(C)CC[C@@]3(C)[C@@H]2C1
- selectivity ratio [10]: 6.94
- selectivity ratio [12]: 1.48
- IC50 [1]: 0.31 µM
- IC50 [38]: 2.12 µM
- IC50 [2]: 1.44 µM
